Test results: patent US20100113464A1, “NOVEL PYRIDAZINE DERIVATIVES” (SYNGENTA CROP PROTECTION, INC., priority 2006, published 2010)

Tests used:
Alternaria solani = assay: Alternaria solani/Tomato/Preventive (action against Alternaria on tomato); type: in vivo; conditions: 96 h, preventive spray, tomato plants cv. Roter Gnom, assessed after 4 days incubation, untreated controls infected over 80%, read-out: inhibit fungal infestation
Procedure: (§1) Alternaria solani/Tomato/Preventive (Action Against Alternaria on Tomato) 4 weeks old tomato plants cv. Roter Gnom are treated with the formulated test compound in a spray chamber. Two days after application tomato plants are inoculated by spraying a spore suspension on the test plants. After an incubation period of 4 days at 22° C./18° C. and 95% r.h. in a greenhouse the disease incidence is assessed.

Botrytis cinerea = assay: Botrytis cinerea/Tomato/Preventive (action against Botrytis on tomato); type: in vivo; conditions: 72 h, preventive spray, tomato plants cv. Roter Gnom, assessed after 3 days incubation, untreated controls infected over 80%, read-out: inhibit fungal infestation
Procedure: as §1, with “Botrytis cinerea/Tomato/Preventive (Action” for “Alternaria solani/Tomato/Preventive (Action”, “Against Botrytis” for “Against Alternaria”, “of 3” for “of 4”, “at 20°” for “at 22° C./18°”, “95% r. h.” for “95% r.h.”

Septoria tritici = assay: Septoria tritici/Wheat/Preventive (action against Septoria leaf spot on wheat); type: in vivo; conditions: Zymoseptoria tritici, preventive spray, wheat plants cv. Riband, assessed 16-18 days after inoculation, untreated controls infected over 80%, read-out: inhibits fungal infestation
Procedure: Septoria tritici/Wheat/Preventive (Action Against Septoria Leaf Spot on Wheat) 2 weeks old wheat plants cv. Riband are treated with the formulated test compound in a spray chamber. One day after application wheat plants are inoculated by spraying a spore suspension (10^6 conidia/ml) on the test plants. After an incubation period of 1 day at 22° C./21° C. and 95% r.h. plants are kept at 22° C./21° C. and 70% r.h. in a greenhouse. The disease incidence is assessed 16-18 days after inoculation.

[1] = test system: Pyrenophora teres (Helminthosporium teres); assay: Pyrenophora teres (Helminthosporium teres)/Barley/Preventive (action against net blotch on barley); type: in vivo; conditions: 96 h, preventive spray, barley plants cv. Regina, assessed after 4 days incubation, untreated controls infected over 80%, read-out: inhibit fungal infestation
Procedure: Pyrenophora teres (Helminthosporium teres)/Barley/Preventive (Action Against Net Blotch on Barley) 1-week-old barley plants cv. Regina are treated with the formulated test compound in a spray chamber. Two days after application barley plants are inoculated by spraying a spore suspension (2.6×10^4 conidia/ml) on the test plants. After an incubation period of 4 days at 20° C. and 95% r.h. the disease incidence is assessed.

[2] = test system: Magnaporthe arisea (Pyricularia oryzae); assay: whole plant or invertebrate; type: in vivo; conditions: 144 h, read-out: inhibit fungal infestation
Puccinia recondite = assay: Puccinia recondite/Wheat/Preventive (action against brown rust on wheat); type: in vivo; conditions: 264 h, preventive spray, wheat plants cv. Arina, assessed 11 days after inoculation, untreated controls infected over 80%, read-out: inhibits fungal infestation
Procedure: Puccinia recondite/Wheat/Preventive (Action Against Brown Rust on Wheat) 1 week old wheat plants cv. Arina are treated with the formulated test compound in a spray chamber. One day after application wheat plants are inoculated by spraying a spore suspension ([…] uredospores/ml) on the test plants. After an incubation period of 1 day at 20° C. and 95% r h. plants are kept for 10 days 20° C./18° C. (day/night) and 60% r.h. in a greenhouse. The disease incidence is assessed 11 days after inoculation.

Uncinula necator = assay: Uncinula necator/Grape/Preventive (action against powdery mildew on grape); type: in vivo; conditions: Erysiphe necator, 168 h, preventive spray, grape seedlings cv. Gutedel, assessed after 7 days incubation, untreated controls infected over 80%, read-out: inhibit fungal infestation
Procedure: Uncinula necator/Grape/Preventive (Action Against Powdery Mildew on Grape) 5 weeks old grape seedlings cv. Gutedel are treated with the formulated test compound in a spray chamber. One day after application grape plants are inoculated by shaking plants infected with grape powdery mildew above the test plants. After an incubation period of 7 days at 24° C./22° C. and 70% r.h. under a light regime of 14/10 h (light/dark) the disease incidence is assessed.

SMILES | melting point [°C] | inhibition at 200 ppm (Alternaria solani) [%] | inhibition at 200 ppm (Botrytis cinerea) [%] | inhibition at 200 ppm (Septoria tritici) [%] | inhibition at 200 ppm [1] [%] | inhibition at 200 ppm [2] [%] | inhibition at 200 ppm (Puccinia recondite) [%] | inhibition at 200 ppm (Uncinula necator) [%]
Cc1n[nH]c(=O)c(-c2c(F)cc(F)cc2F)c1-c1cccs1 [I.h.196, 6-methyl-5-thiophen-2-yl-4-(2,4,6-trifluorophenyl)-2H-pyridazin-3-one] | 249 to 251 | – | – | – | – | – | – | –
Cc1nnc(F)c(-c2c(F)cc(F)cc2F)c1-c1cccs1 [I.h.197, 3-fluoro-6-methyl-5-thiophen-2-yl-4-(2,4,6-trifluorophenyl)-pyridazine] | 71 to 74 | ≥ 80 | ≥ 80 | ≥ 80 | ≥ 80 | ≥ 80 | ≥ 80 | –
Cc1nnc(Cl)c(-c2c(F)cc(F)cc2F)c1-c1cccs1 [I.h.198, 3-chloro-6-methyl-5-thiophen-2-yl-4-(2,4,6-trifluorophenyl)-pyridazine] | 90 to 92 | ≥ 80 | ≥ 80 | ≥ 80 | ≥ 80 | ≥ 80 | ≥ 80 | ≥ 80
COc1nnc(C)c(-c2cccs2)c1-c1c(F)cc(F)cc1F [I.h.199, 3-methoxy-6-methyl-5-thiophen-2-yl-4-(2,4,6-trifluorophenyl)-pyridazine] | 124 to 125 | ≥ 80 | ≥ 80 | ≥ 80 | ≥ 80 | ≥ 80 | ≥ 80 | ≥ 80
Cc1nnc(C)c(-c2c(F)cc(F)cc2F)c1-c1cccs1 [I.h.200, 3,6-dimethyl-4-thiophen-2-yl-5-(2,4,6-trifluorophenyl)-pyridazine] | 100 to 102 | ≥ 80 | ≥ 80 | ≥ 80 | ≥ 80 | ≥ 80 | ≥ 80 | ≥ 80
COc1cc(F)c(-c2c(OC)nnc(C)c2-c2cccs2)c(F)c1 [I.h.254, 4-(2,6-difluoro-4-methoxyphenyl)-3-methoxy-6-methyl-5-thiophen-2-yl-pyridazine] | 130 to 133 | – | – | – | – | – | – | –
